Here are results for 18 molecules from patent US11279735B2, “Cyclic peptide antibiotics” (priority 2017, dated 2022).

Each structure is given as a SMILES string. Converted amounts (≈) assume the structure as drawn. *1 amine or outer side, *2 acyl side, *3 side chain or, on linkers, in order; H or OH if unused. Where a SMILES comes first, the peptide text is derived from it. [ ]: non-standard residue; d: D form. X2 = CCCCCC[C@@H](OC[C@@H](C)N[*:1])[C@@H](C)C(=O)[*:2]; X23 = CCCCCCCCCC[C@@H](OCCN[*:1])[C@@H](C)C(=O)[*:2]; aIle = CC[C@@H](C)[C@H](N)C(=O)O; aThr = C[C@H](O)[C@H](N)C(=O)O; NMeL = CN[C@@H](CC(C)C)C(=O)O; Chg = N[C@H](C(=O)O)C1CCCCC1; Dap = NC[C@H](N)C(=O)O

The experiment has as its system Escherichia coli (E. coli) strain CFT073 ATCC 700928. It counts as cell-based. The settings on record: ATCC 700928, 22 h. The method in brief:
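Broth microdilution MIC per CLSI M07-A8 in cation-adjusted Mueller Hinton II broth with 0.002% Tween-80. Ten-point 2-fold series topped at 64, 4, 0.5 or 0.13 μg/mL depending on protocol. Final inoculum OD600 0.0005, incubated 22 h at 35 °C.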
In the case of `CCCCCCCCCC[C@H]1OC(=O)CNC(=O)[C@H]([C@H](C)O)NC(=O)[C@H](CN)NC(=O)[C@H](C2CCCC2)NC(=O)[C@H](CC(C)C)N(C)C(=O)[C@@H]1C` [Example 45, (6S,9S,12S,15S,18R,19R)-9-(aminomethyl)-12-cyclopentyl-19-decyl-6-[(1S)-1-hydroxyethyl]-15-isobutyl-16,18-dimethyl-1-oxa-4,7,10,13,16-pentazacyclononadecane-2,5,8,11,14,17-hexone], the MIC was found to be 25 µM (≈ 18.1 µg/mL).

`CCCCCCCCCC[C@H]1OC(=O)CNC(=O)[C@H]([C@H](C)O)NC(=O)[C@H](CN)NC(=O)[C@H](CCc2ccccc2)NC(=O)[C@H](CC(C)C)N(C)C(=O)[C@@H]1C` [Example 46, (6S,9S,12S,15S,18R,19R)-9-(aminomethyl)-19-decyl-6-[(1S)-1-hydroxyethyl]-15-isobutyl-16,18-dimethyl-12-(2-phenylethyl)-1-oxa-4,7,10,13,16-pentazacyclononadecane-2,5,8,11,14,17-hexone] yielded an MIC of 25 µM (≈ 19 µg/mL).

The molecule `CCCCCCCCCC[C@H]1OCCNC(=O)[C@H]([C@H](C)O)NC(=O)[C@H](CN)NC(=O)[C@H]([C@H](C)CC)NC(=O)[C@H](CC(C)C)N(C)C(=O)[C@@H]1C` [Example 47, (6S,9S,12S,15S,18R,19R)-9-(aminomethyl)-19-decyl-6-[(1S)-1-hydroxyethyl]-15-isobutyl-16,18-dimethyl-12-[(1R)-1-methylpropyl]-1-oxa-4,7,10,13,16-pentazacyclononadecane-5,8,11,14,17-pentone] (cyclo([Dap][aThr][X23][NMeL][aIle])) had an MIC of 3.1 µM (≈ 2.16 µg/mL).

Take `CCCCCCCCCC[C@H]1OC(=O)CNC(=O)[C@H](COCCO)NC(=O)[C@H](CO)NC(=O)[C@H]([C@@H](C)CC)NC(=O)[C@H](CC(C)C)N(C)C(=O)[C@@H]1C` [Example 48, (6S,9S,12S,15S,18R,19R)-19-decyl-6-(2-hydroxyethoxymethyl)-9-(hydroxymethyl)-15-isobutyl-16,18-dimethyl-12-[(1S)-1-methylpropyl]-1-oxa-4,7,10,13,16-pentazacyclononadecane-2,5,8,11,14,17-hexone]: the MIC stood at 50 µM (≈ 37.1 µg/mL).

`CC[C@@H](C)[C@@H]1NC(=O)[C@H](CC(C)C)N(C)C(=O)[C@H](C)[C@@H](CCCCC(C)(C)C)OC(=O)CNC(=O)[C@H]([C@H](C)O)NC(=O)[C@H](CN)NC1=O` [Example 49, (6S,9S,12S,15S,18R,19R)-9-(aminomethyl)-19-(5,5-dimethylhexyl)-6-[(1S)-1-hydroxyethyl]-15-isobutyl-16,18-dimethyl-12-[(1R)-1-methylpropyl]-1-oxa-4,7,10,13,16-pentazacyclononadecane-2,5,8,11,14,17-hexone] returned an MIC of 3.1 µM (≈ 2.12 µg/mL).

As for `CCCCCCCCCC[C@H]1OC(=O)CNC(=O)[C@H]([C@H](C)O)NC(=O)[C@H](CN)NC(=O)[C@H](CCCCOC)NC(=O)[C@H](CC(C)C)N(C)C(=O)[C@@H]1C` [Example 50, (6S,9S,12S,15S,18R,19R)-9-(aminomethyl)-19-decyl-6-[(1S)-1-hydroxyethyl]-15-isobutyl-12-(4-methoxybutyl)-16,18-dimethyl-1-oxa-4,7,10,13,16-pentazacyclononadecane-2,5,8,11,14,17-hexone], the MIC came to 25 µM (≈ 18.5 µg/mL).

On to `CCCCCC[C@H]1OC(=O)CNC(=O)[C@H](COCCCN)NC(=O)[C@H](CN)NC(=O)[C@H](C2CCCCC2)NC(=O)[C@H](CC(C)C)N(C)C(=O)[C@@H]1C` [Example 51, (6S,9S,12S,15S,18R,19R)-9-(Aminomethyl)-6-((3-aminopropoxy)methyl)-12-cyclohexyl-19-hexyl-15-isobutyl-16,18-dimethyl-1-oxa-4,7,10,13,16-pentaazacyclononadecane-2,5,8,11,14,17-hexaone], for which the MIC is 8.7 µM (≈ 6.3 µg/mL).

`CCCCCC[C@H]1OC(=O)CNC(=O)[C@H]([C@H](C)O)NC(=O)[C@H](CN)NC(=O)[C@H](C2CCCCC2)NC(=O)[C@H](CC(C)C)N(C)C(=O)[C@@H]1Cc1ccc(-c2ccccc2)cc1` [Example 54, (6S,9S,12S,15S,18R,19R)-18-([1,1′-Biphenyl]-4-ylmethyl)-9-(aminomethyl)-12-cyclohexyl-19-hexyl-6-((S)-1-hydroxyethyl)-15-isobutyl-16-methyl-1-oxa-4,7,10,13,16-pentaazacyclononadecane-2,5,8,11,14,17-hexaone] registered an MIC of 8.7 µM (≈ 7.25 µg/mL).

In the case of `CCCCCC[C@H]1OC(=O)CNC(=O)[C@H]([C@H](C)O)NC(=O)[C@H](CN)NC(=O)[C@H](C2CC3(CCC3)C2)NC(=O)[C@H](CC(C)C)N(C)C(=O)[C@@H]1C` [Example 55, (6S,9S,12S,15S,18R,19R)-9-(aminomethyl)-19-hexyl-6-((S)-1-hydroxyethyl)-15-isobutyl-16,18-dimethyl-12-(spiro[3.3]heptan-2-yl)-1-oxa-4,7,10,13,16-pentaazacyclononadecane-2,5,8,11,14,17-hexaone], the MIC came out at 18 µM (≈ 12.5 µg/mL).

The molecule `CCCCCCCCCC[C@H]1OC(=O)CNC(=O)[C@H](Cc2c[nH]nn2)NC(=O)[C@H](CN)NC(=O)[C@H](C2CCCCC2)NC(=O)[C@H](CC(C)C)N(C)C(=O)[C@@H]1C` [Example 56, (6S,9S,12S,15S,18R,19R)-6-((1H-1,2,3-triazol-4-yl)methyl)-9-(aminomethyl)-12-cyclohexyl-19-decyl-15-isobutyl-16,18-dimethyl-1-oxa-4,7,10,13,16-pentaazacyclononadecane-2,5,8,11,14,17-hexaone] returned a minimal inhibitory concentration (MIC) of 4.4 µM (≈ 3.41 µg/mL).

`CCCCCC[C@H]1OC[C@@H](C)NC(=O)[C@H]([C@H](C)O)NC(=O)[C@H](CN)NC(=O)[C@H](C2CCCCC2)NC(=O)[C@H](CC(C)C)N(C)C(=O)[C@@H]1C` [Example 57, (3R,6S,9S,12S,15S,18R,19R)-9-(Aminomethyl)-12-cyclohexyl-19-hexyl-6-((S)-1-hydroxyethyl)-15-isobutyl-3,16,18-trimethyl-1-oxa-4,7,10,13,16-pentaazacyclononadecane-5,8,11,14,17-pentaone] (cyclo([Chg][Dap][aThr][X2][NMeL])): the minimal inhibitory concentration (MIC) stood at 2.9 µM (≈ 1.97 µg/mL).

Turning to `CCCCCC[C@H]1OC(=O)CNC(=O)[C@H](CO[C@H]2C[C@H](N)C2)NC(=O)[C@H](CN)NC(=O)[C@H](C2CCCCC2)NC(=O)[C@H](CC(C)C)N(C)C(=O)[C@@H]1C` [Example 58, (6S,9S,12S,15S,18R,19R)-6-(((1r,3S)-3-Aminocyclobutoxy)methyl)-9-(aminomethyl)-12-cyclohexyl-19-hexyl-15-isobutyl-16,18-dimethyl-1-oxa-4,7,10,13,16-pentaazacyclononadecane-2,5,8,11,14,17-hexaone], the MIC was 6.3 µM (≈ 4.64 µg/mL).

In turn, `CCCCCC[C@H]1OC(=O)CNC(=O)[C@H]([C@H](C)O)NC(=O)[C@H](CN)NC(=O)[C@H](C2CCCCCC2)NC(=O)[C@H](CC(C)C)N(C)C(=O)[C@@H]1C` [Example 59, (6S,9S,12S,15S,18R,19R)-9-(Aminomethyl)-12-cycloheptyl-19-hexyl-6-((S)-1-hydroxyethyl)-15-isobutyl-16,18-dimethyl-1-oxa-4,7,10,13,16-pentaazacyclononadecane-2,5,8,11,14,17-hexaone] had an MIC of 1.1 µM (≈ 0.764 µg/mL). Compared with the last molecule, the MIC is about 5.7-fold lower.

In the case of `CC(C)C[C@H]1C(=O)N[C@@H](C2CCCCC2)C(=O)N[C@@H](CN)C(=O)N[C@@H]([C@H](C)O)C(=O)NCC(=O)O[C@H](CCC2CC3CCC2C3)[C@@H](C)C(=O)N1C` (stereo partly drawn) [Example 60, (6S,9S,12S,15S,18R,19R)-9-(Aminomethyl)-19-(2-(bicyclo[2.2.1]heptan-2-yl)ethyl)-12-cyclohexyl-6-((S)-1-hydroxyethyl)-15-isobutyl-16,18-dimethyl-1-oxa-4,7,10,13,16-pentaazacyclononadecane-2,5,8,11,14,17-hexaone], the MIC turned out to be 0.73 µM (≈ 0.525 µg/mL).

`CCCCCCC1OC(=O)CNC(=O)[C@H]([C@H](C)O)NC(=O)[C@H](CN)NC(=O)[C@H]([C@H](C)CC)NC(=O)[C@H](CC(C)C)N(C)C(=O)C1(F)F` (stereo partly drawn) [Example 61, (6S,9S,12S,15S)-9-(Aminomethyl)-12-((R)-sec-butyl)-18,18-difluoro-19-hexyl-6-((S)-1-hydroxyethyl)-15-isobutyl-16-methyl-1-oxa-4,7,10,13,16-pentaazacyclononadecane-2,5,8,11,14,17-hexaone]: the MIC stood at 6.3 µM (≈ 4.26 µg/mL).

Molecule `CC(C)C[C@H]1C(=O)N[C@@H](C2CCCCC2)C(=O)N[C@@H](CN)C(=O)N[C@@H]([C@H](C)O)C(=O)NCC(=O)O[C@H](CC2CC3CCC2C3)[C@@H](C)C(=O)N1C` (stereo partly drawn) [Example 62, (6S,9S,12S,15S,18R,19R)-9-(Aminomethyl)-19-(((exo)-bicyclo[2.2.1]heptan-2-yl)methyl)-12-cyclohexyl-6-((S)-1-hydroxyethyl)-15-isobutyl-16,18-dimethyl-1-oxa-4,7,10,13,16-pentaazacyclononadecane-2,5,8,11,14,17-hexaone] gave an MIC of 1.6 µM (≈ 1.13 µg/mL).

In the case of `CC(C)C[C@H]1C(=O)N[C@@H](C2CCCCC2)C(=O)N[C@@H](CN)C(=O)N[C@@H]([C@H](C)O)C(=O)NCC(=O)O[C@H](CCC(C)(C)C)[C@@H](C)C(=O)N1C` [Example 63, (6S,9S,12S,15S,18R,19R)-9-(aminomethyl)-12-cyclohexyl-19-(3,3-dimethylbutyl)-6-((S)-1-hydroxyethyl)-15-isobutyl-16,18-dimethyl-1-oxa-4,7,10,13,16-pentaazacyclononadecane-2,5,8,11,14,17-hexaone], the MIC is 4.4 µM (≈ 3 µg/mL).

On to `COC(C)(C)CCCCCC[C@H]1OC(=O)CNC(=O)[C@H]([C@H](C)O)NC(=O)[C@H](CN)NC(=O)[C@H](C2CCCCC2)NC(=O)[C@H](CC(C)C)N(C)C(=O)[C@@H]1C` [Example 64, (6S,9S,12S,15S,18R,19R)-9-(Aminomethyl)-12-cyclohexyl-6-((S)-1-hydroxyethyl)-15-isobutyl-19-(7-methoxy-7-methyloctyl)-16,18-dimethyl-1-oxa-4,7,10,13,16-pentaazacyclononadecane-2,5,8,11,14,17-hexaone], for which the minimal inhibitory concentration (MIC) came to 2.2 µM (≈ 1.66 µg/mL).
